Here are results for twelve molecules from ChEMBL document CHEMBL1201862, “PubChem BioAssay data set” (2004).

Structures can show the parent of a compound that is named as a salt.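 Dose response: 5 concentrations. Exposure: 48 h. Format: 96-well plates. Endpoint: linear interpolation; highest concentration if not reached. GI50 is the concentration that inhibits growth by half.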 Calls of active or inactive are those of the source. Cut-off read from the data, not from the text of the source: active = GI50 up to about 1.1 µM and inactive = higher.

Test systems include A498; A549; ACHN; CCRF-CEM; HCT-116; HL-60; HOP-62; IGROV-1; K562; KM12; LOX IMVI; M14; NCI-H460; OVCAR-3; OVCAR-8; SK-MEL-2; SNB-75; UACC-62; T47D.
Holding throughout (assay): NCI-60 cell line screen, 48 h

With `Cc1cccc2c1c(=O)c1c(O)cc(O)cc1n2C`, the GI50 with A498 was 59 µM (inactive); in the experiment with A549 it was > 100 µM (inactive); with ACHN, > 100 µM (inactive); in the experiment with CCRF-CEM, > 100 µM (inactive); in the experiment with HCT-116, 78.3 µM (inactive); in the experiment on HL-60 it was > 100 µM (inactive). In addition, the GI50 in the experiment on HOP-62 was > 100 µM (inactive); in the experiment with IGROV-1, > 100 µM (inactive); with K562, 80.5 µM (inactive); in the experiment on KM12 it was > 100 µM (inactive); in the experiment on LOX IMVI, 82 µM (inactive); with M14, 55 µM (inactive). Also, the GI50 with NCI-H460 is > 100 µM (inactive); in the experiment on OVCAR-3 it was > 100 µM (inactive); in the experiment with OVCAR-8, > 100 µM (inactive); in the experiment on SK-MEL-2, > 100 µM (inactive); with SNB-75, 39.4 µM (inactive); in the experiment with UACC-62, 90.6 µM (inactive).

Consider `O=C(Nc1ccccc1-c1nn(CO)c(=S)n(CO)c1=O)C(F)(F)F`, for which the GI50 in the experiment with A549, with ACHN, in the experiment on CCRF-CEM, in the experiment with HCT-116, with HOP-62 and in the experiment on IGROV-1 was > 100 µM (inactive) each time. Besides, the GI50 with K562, in the experiment with KM12, in the experiment on LOX IMVI, in the experiment on M14, with NCI-H460 and with OVCAR-3 was > 100 µM (inactive) throughout. For the same molecule, the GI50 in the experiment on OVCAR-8 is > 100 µM (inactive); in the experiment on SK-MEL-2, > 100 µM (inactive); with SNB-75, 92.3 µM (inactive); in the experiment on UACC-62, > 100 µM (inactive).

Regarding `CCOC(=O)C1CCCCc2sc(N)c(C#N)c21` (configuration not stated), the GI50 in the experiment with A498, with A549, with ACHN, in the experiment on HCT-116, with HL-60 and with HOP-62 was > 100 µM (inactive) throughout. For the same molecule, the GI50 in the experiment with IGROV-1, in the experiment on K562, in the experiment on KM12, with M14, with NCI-H460 and in the experiment with OVCAR-8 was > 100 µM (inactive) in each case. The GI50 in the experiment with SK-MEL-2, in the experiment with SNB-75 and in the experiment on UACC-62 was > 100 µM (inactive) each time.

Take `COC(=O)C(Cc1ccccc1)OC(=O)C(N)CC(=O)O` (configuration not stated): the GI50 in the experiment with A549, in the experiment on ACHN, in the experiment with HCT-116, in the experiment with HOP-62, with IGROV-1 and with K562 was > 100 µM (inactive) each time. The GI50 in the experiment with M14 was > 100 µM (inactive); with NCI-H460 it was > 100 µM (inactive); in the experiment on OVCAR-3 it was > 100 µM (inactive); in the experiment on OVCAR-8, > 100 µM (inactive); in the experiment on SK-MEL-2, > 100 µM (inactive); in the experiment on SNB-75 it was < 0.01 µM (active). The GI50 in the experiment with T47D and in the experiment with UACC-62 was > 100 µM (inactive) each time.

For `Cn1c2c(c3ccccc31)CC1c3c(c4ccccc4n3C)CC21` (configuration not stated), the GI50 with A549, in the experiment on ACHN, in the experiment with CCRF-CEM, in the experiment with HL-60, with HOP-62 and with IGROV-1 was > 100 µM (inactive) throughout. In addition, the GI50 in the experiment on K562, in the experiment with KM12, in the experiment on LOX IMVI, in the experiment with M14, with NCI-H460 and in the experiment with OVCAR-3 was > 100 µM (inactive) in each case. Besides, the GI50 in the experiment on OVCAR-8, in the experiment with SNB-75, in the experiment on T47D and in the experiment on UACC-62 was > 100 µM (inactive) each time.

As for `C1CSCC2(COC2)CSCCSCC2(COC2)CS1`, the GI50 with A549, in the experiment on CCRF-CEM, in the experiment on HCT-116, in the experiment on HL-60, in the experiment on HOP-62 and in the experiment with IGROV-1 was > 100 µM (inactive) in each case. Besides, the GI50 with K562, in the experiment on KM12, in the experiment on LOX IMVI, in the experiment on M14, in the experiment with NCI-H460 and in the experiment with OVCAR-3 was > 100 µM (inactive) each time. The GI50 was > 100 µM (inactive) in the experiment on OVCAR-8, 35.6 µM (inactive) in the experiment on SNB-75, > 100 µM (inactive) with T47D and > 100 µM (inactive) with UACC-62.

Consider `O=C1C[C@H]2[C@H](c3ccc(Br)cc3)[C@H]3C(=O)c4ccccc4NC(=O)[C@@H]3[C@@]2(O)c2ccccc2N1`, for which the GI50 with A498 is 8.34 µM (inactive); in the experiment with A549, 11.6 µM (inactive); in the experiment on ACHN, 11.2 µM (inactive); with CCRF-CEM, 10.6 µM (inactive); in the experiment on HCT-116, 12.3 µM (inactive); with HL-60, 3.09 µM (inactive). For the same molecule, the GI50 in the experiment on HOP-62 was 19.6 µM (inactive); in the experiment on IGROV-1, 8.22 µM (inactive); with K562, 12 µM (inactive); with KM12 it was 11.7 µM (inactive); with LOX IMVI it was 13.8 µM (inactive); in the experiment with M14, 12.3 µM (inactive). Also, the GI50 in the experiment on NCI-H460 was 25.5 µM (inactive); with OVCAR-3, 10.6 µM (inactive); in the experiment with OVCAR-8 it was 19 µM (inactive); with SNB-75, 4.53 µM (inactive); in the experiment on UACC-62, 24.8 µM (inactive).

Turning to `CC(C)OC(=O)NCCn1cc(-c2ccccc2)nn1`, the GI50 in the experiment with A549, with ACHN, in the experiment with CCRF-CEM, in the experiment with HCT-116, in the experiment with HL-60 and in the experiment with HOP-62 was > 100 µM (inactive) each time. In addition, the GI50 with K562, with KM12, in the experiment with LOX IMVI, in the experiment on M14, in the experiment on NCI-H460 and in the experiment with OVCAR-8 was > 100 µM (inactive) throughout. In addition, the GI50 in the experiment with SK-MEL-2 and in the experiment on SNB-75 was > 100 µM (inactive) throughout.

As to `COc1cc(C2c3cc4c(cc3[C@@H](OCCN(C)C)C3COC(=O)[C@H]23)OCO4)cc(OC)c1O` (some centres not stated), the GI50 in the experiment on A498 was 0.167 µM (active); with A549, 0.0655 µM (active); in the experiment with ACHN it was 0.1 µM (active); in the experiment with CCRF-CEM it was 0.0419 µM (active); in the experiment with HCT-116, 1.04 µM (active); with HL-60, 0.036 µM (active). Moreover, the GI50 with HOP-62 is 0.045 µM (active); in the experiment on IGROV-1 it was 1.52 µM (inactive); in the experiment with K562, 0.562 µM (active); with KM12, 0.723 µM (active); in the experiment with LOX IMVI, 0.145 µM (active); with M14 it was 0.384 µM (active). Further, the GI50 in the experiment with NCI-H460 is 0.0127 µM (active); in the experiment with OVCAR-3, 1.76 µM (inactive); in the experiment on OVCAR-8 it was 0.583 µM (active); in the experiment on SK-MEL-2 it was 1.29 µM (inactive); in the experiment with SNB-75, 0.769 µM (active); in the experiment on UACC-62, 0.243 µM (active).

Turning to `CSCCCNC(=O)c1csc(-c2csc(CCN)n2)n1`, the GI50 with A549 was > 100 µM (inactive); with ACHN it was > 100 µM (inactive); in the experiment with CCRF-CEM, 75.2 µM (inactive); with HCT-116, 84.5 µM (inactive); in the experiment with HL-60, > 100 µM (inactive); with HOP-62, > 100 µM (inactive). Also, the GI50 in the experiment with IGROV-1 was 53.6 µM (inactive); in the experiment with K562 it was > 100 µM (inactive); in the experiment with KM12, > 100 µM (inactive); in the experiment on LOX IMVI, 59.7 µM (inactive); in the experiment on M14 it was > 100 µM (inactive); in the experiment on NCI-H460 it was 91 µM (inactive). The GI50 is > 100 µM (inactive) with OVCAR-3, > 100 µM (inactive) in the experiment on OVCAR-8, 74.1 µM (inactive) with T47D and > 100 µM (inactive) in the experiment with UACC-62.

On to `COc1cc(/C=C/c2ccc(OC)c(OC)c2)cc(OC)c1` [(E)-3,4,3',5'-TETRAMETHOXYSTILBENE], for which the GI50 in the experiment with A549 is 37.8 µM (inactive); in the experiment with ACHN, 30.5 µM (inactive); with CCRF-CEM, 76.9 µM (inactive); in the experiment with HCT-116 it was 23.1 µM (inactive); with HOP-62 it was 63.7 µM (inactive); in the experiment with IGROV-1 it was 46.9 µM (inactive). Also, the GI50 in the experiment with K562 is 41.1 µM (inactive); with KM12, 15.5 µM (inactive); with LOX IMVI, 19.9 µM (inactive); in the experiment on M14 it was 28.1 µM (inactive); in the experiment with NCI-H460 it was 22.2 µM (inactive); in the experiment on OVCAR-3, 23.7 µM (inactive). Besides, the GI50 was 39.6 µM (inactive) in the experiment with OVCAR-8; 32 µM (inactive) in the experiment with SK-MEL-2; 34 µM (inactive) with SNB-75; 23.6 µM (inactive) with T47D; 19.8 µM (inactive) in the experiment with UACC-62.

In the case of `O=C(OCCN1CCCCCC1)C(c1ccsc1)C1CCCCC1` (configuration not stated) [CETIEDIL CITRATE], the GI50 in the experiment with A549 is 19.4 µM (inactive); with ACHN, 17.1 µM (inactive); in the experiment with CCRF-CEM, 15.7 µM (inactive); in the experiment with HCT-116, 14.1 µM (inactive); in the experiment with HL-60, 24.5 µM (inactive); with HOP-62, 15.1 µM (inactive). Moreover, the GI50 with IGROV-1 was 11.1 µM (inactive); in the experiment with KM12, 16.8 µM (inactive); in the experiment with LOX IMVI, 17.1 µM (inactive); with M14, 17.3 µM (inactive); in the experiment with NCI-H460, 16.2 µM (inactive); with OVCAR-3, 15 µM (inactive). Further, the GI50 is 18.6 µM (inactive) in the experiment with OVCAR-8, 16.1 µM (inactive) in the experiment on SNB-75 and 3.28 µM (inactive) in the experiment with T47D.
